Test results as given in patent US20240158348A1, “HERBICIDAL CYCLIC AMIDES N-SUBSTITUTED WITH A HALOALKYLSULFONYLANILIDE GROUP” (FMC Corporation, priority 2021, published 2024).

Experiments:
Assay type in all cases: in vivo
[1] = tested on: soybean (Glycine max); assay: Test C postemergence, soybean; conditions: visual injury, 0 to 100 scale (0 no effect, 100 complete control)
[2] = tested on: goosegrass (Eleusine indica); assay: Test C postemergence, goosegrass; conditions: visual injury, 0 to 100 scale (0 no effect, 100 complete control)
Method in brief: (§1)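 Pre: soil sprayed at seeding. Post: seedlings treated at 1–2 leaves (2–10 cm). Vehicle non-phytotoxic solvent mix with surfactant; loam–sand medium; greenhouse; visual injury read at 10 or 12 days, scale 0–100.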

[3] = tested on: kochia (Bassia scoparia); assay: Test C postemergence, kochia; conditions: visual injury, 0 to 100 scale (0 no effect, 100 complete control)
Method in brief: as §1

[4] = tested on: foxtail, giant (giant foxtail, Setaria faberi); assay: Test C preemergence, giant foxtail; conditions: 0 is no effect, 100 is complete control
Method in brief: as §1

[5] = tested on: pigweed, palmer (palmer amaranth, Amaranthus palmeri); assay: Test C postemergence, palmer amaranth; conditions: visual injury, 0 to 100 scale (0 no effect, 100 complete control)
Method in brief: as §1

[6] = tested on: ryegrass, Italian (Italian ryegrass, Lolium multiflorum); assay: Test C postemergence, Italian ryegrass; conditions: visual injury, 0 to 100 scale (0 no effect, 100 complete control)
Method in brief: as §1

[7] = tested on: corn (Zea mays); assay: Test C preemergence, corn; conditions: 0 is no effect, 100 is complete control
Method in brief: as §1

| SMILES | Soybean plant response rating ([1]; 31 g ai/ha Postemergence) | Soybean plant response rating ([1]; 125 g ai/ha Postemergence) | Goosegrass plant response rating ([2]; 31 g ai/ha Postemergence) | Goosegrass plant response rating ([2]; 125 g ai/ha Postemergence) | Kochia plant response rating ([3]; 31 g ai/ha Postemergence) | Kochia plant response rating ([3]; 125 g ai/ha Postemergence) | Plant response rating (0 to 100 scale), Foxtail, Giant ([4]; 31 g ai/ha Preemergence) | Plant response rating (0 to 100 scale), Foxtail, Giant ([4]; 125 g ai/ha Preemergence) | Pigweed, Palmer plant response rating ([5]; 31 g ai/ha Postemergence) | Pigweed, Palmer plant response rating ([5]; 125 g ai/ha Postemergence) | Ryegrass, Italian plant response rating ([6]; 31 g ai/ha Postemergence) | Ryegrass, Italian plant response rating ([6]; 125 g ai/ha Postemergence) | Plant response rating (0 to 100 scale), Corn ([7]; 31 g ai/ha Preemergence) | Plant response rating (0 to 100 scale), Corn ([7]; 125 g ai/ha Preemergence) |
| --- | --- | --- | --- | --- | --- | --- | --- | --- | --- | --- | --- | --- | --- | --- |
| Cc1c(N2CCC(OC3CCC3)C2=O)cc(N(C(=O)OCC(C)C)S(=O)(=O)C(F)(F)F)c(C)c1C (stereo not drawn) [Compound 48] | 30 | 70 | 0 | 40 | 20 | 60 | 30 | 100 | 30 | 70 | 40 | 60 | 20 | 60 |
| Cc1c(N2CCC(OC3CC3)C2=O)cc(N(COC(=O)C(C)(C)C)S(=O)(=O)C(F)(F)F)c(C)c1C (stereo not drawn) [Compound 49] | 60 | 80 | 20 | 80 | 40 | 60 | 20 | 90 | 10 | 50 | 50 | 90 | 0 | 50 |
| Cc1cc(C)c(N2CCC(OCC3CCC3(F)F)C2=O)cc1NS(=O)(=O)C(F)(F)F (stereo not drawn) [Compound 52] | 60 | 70 | 0 | 70 | 20 | 70 | 90 | 100 | 0 | 40 | 40 | 100 | 10 | 90 |
| Cc1cc(C)c(N(COC(=O)C(C)(C)C)S(=O)(=O)C(F)(F)F)cc1N1CCC(OCC2CC2(F)F)C1=O (stereo not drawn) [Compound 54] | 50 | 60 | 60 | 90 | 30 | 50 | 0 | 80 | 0 | 50 | 60 | 70 | 0 | 30 |
| Cc1cc(C)c(N(COC(=O)C(C)(C)C)S(=O)(=O)C(F)(F)F)cc1N1CCC(OCC2CC(F)(F)C2)C1=O (stereo not drawn) [Compound 55] | 50 | 70 | 40 | 90 | 0 | 20 | 0 | 10 | 0 | 40 | 0 | 60 | 0 | 10 |
| Cc1cc(C)c(N2CCC(OCC3CCCC3)C2=O)cc1NS(=O)(=O)C(F)(F)F (stereo not drawn) [Compound 57] | 80 | 100 | 70 | 90 | 50 | 70 | 80 | 100 | 40 | 70 | 20 | 60 | 0 | 50 |
